# Measurements taken from patent US9670242B2, “Tetracyclic anthraquinone derivatives” (Tianjin Hemay Bio-Tech Co., Ltd, priority 2012, dated 2017).
# Where a name gives a salt, the structure may show the parent alone.
# Legend:
# 22Rv1 cells = assay: 22Rv1 cell growth inhibition test (SRB assay); type: cell-based, human; conditions: growth inhibition at 222 nM, 73 h
# Method: 22Rv1 Cell Growth Inhibition Test (SRB Assay)
# Cell strains: 22Rv1 (human prostate cancer cell strains); SRB: 0.4% (w/v) working solution was formulated with 1% glacial acetic acid, reserved at 4° C.; antitumor compounds; DMSO.
# (§1) II. Reagents and Consumable Materials
# (§2) Culture medium: 90% RPMI-1640+10% FBS; Pancreatin (0.25% (w/v) solution was formulated with PBS, 0.53 mM of EDTA was added in the formulation); PBS; 96-well culture plate.
# (§3) 1. A plate (10 cm) of cells in logarithmic growth phase that were normally cultured was collected;
# (§4) 2. The culture solution was sucked out. The plate was washed with 5 mL of PBS once or twice;
# (§5) 3. 1.5 mL of 0.25% pancreatin was added to the plate to infiltrate the cells;
# (§6) 4. The pancreatin was sucked out. The culture plate was placed in an incubator. Digestion was carried out for about 3 min at 37° C.;
# (§7) 5. 4 mL of complete culture solution was added to the culture plate to stop the digestion. The cells were carefully scoured with micropipette (1 ml) to give a uniform single cell suspension. The suspension was implanted into a 96-well cell culture plate by 7000 cells/100 μL per well. The culture plate was incubated overnight under 5% CO2 at 37° C. In day 2, 100 μL of culture solution comprising a compound was added in each well. The plate was further incubated for 73 h under 5% CO2 at 37° C.;
# (§8) 6. The culture solution was sucked out. 100 uL of TCA fixed cells which were diluted to 10% were added to each well. The plate was kept in a refrigerator for 1 h at 4° C.
# (§9) 7. TCA stationary liquid was sucked out. Each well was washed with 150 μL of ddH2O five times;
# (§10) 8. After the stationary liquid was cleansed, the plate was dried in the air at the room temperature;
# (§11) 9. 60 μL of SRB staining solution was added in each well. The well was stained for 15 min at the room temperature;
# (§12) 10. The SRB staining solution was sucked out. Each well was washed with 150 μL of 1% glacial acetic acid five times;
# (§13) 11. After the SRB staining solution was cleansed, the plate was dried in the air at the room temperature;
# (§14) 12. 100 μL of 10 mM Tris was added in each well. The plate was vibrated to dissolve out SRB;
# (§15) 13. OD values were determined at 570 nM.
# (§16) IV. Results and Treatments
# (§17) 1. Calculation of Relative Inhibition Ratio The inhibition ratio of a compound on cell growth=(PC−n)/(PC−NC)×100%
# (§18) PC: OD values of cells after normal growth in control wells without a compound;
# (§19) n: OD values of cells after growth in test wells with a compound;
# (§20) NC: Background OD values of blank wells without a compound and cells.
# SK-OV-3 cells = assay: SK-OV-3 cell growth inhibition test (MTT assay); type: cell-based, human; conditions: growth inhibition at 667 nM, 69 h
# Method: SK-OV-3 Cell Growth Inhibition Test (MTT Assay)
# Cell strains: SK-OV-3 (human ovarian cancer cell strains); MTT; antitumor compounds; DMSO.
# as §1
# Culture medium: 90% McCoy's 5A+10% FBS; Pancreatin (0.25% (w/v) solution was formulated with PBS, 0.53 mM of EDTA was added in the formulation); PBS; 96-well culture plate.
# as §3, §4
# (§21) 3. PBS was sucked out. 1.5 mL of 0.25% pancreatin was added to infiltrate the cells;
# 4. The pancreatin was sucked out. The culture plate was placed in an incubator. Digestion was carried out for about 5 min at 37° C.;
# (§22) 5. 4.5 mL of complete culture solution was added to the culture plate to stop the digestion. The cells were carefully scoured with micropipette (1 ml) to give a uniform cell suspension. The suspension was implanted into a 96-well cell culture disc by 4000 cells/100 μL per well. The culture plate was incubated overnight under 5% CO2 at 37° C. In day 2, 100 μL of culture solution comprising a compound was added in each well. The plate was further incubated for 69 h under 5% CO2 at 37° C.;
# (§23) 6. The culture solution was sucked out;
# (§24) 7. 100 μL of serum-free culture solution containing 0.5 mg/mL MTT was added in each well. The plate was incubated for 3 h;
# (§25) 8. The culture solution was carefully sucked out;
# (§26) 9. 100 μL of DMSO was added in each well and vibrated to dissolve;
# (§27) 10. OD values were determined at 490 nM.
# as §16, §17, §18, §19, §20
# [1] = Solubility of the compound in water; type: physicochemical
# BxPc-3 cells = assay: BxPc-3 cell growth inhibition test (MTT assay); type: cell-based, human; conditions: growth inhibition at 2000 nM, 70 h
# Method: BxPc-3 Cell Growth Inhibition Test (MTT Assay)
# Cell strains: BxPC-3 (human pancreatic cancer cell strains); MTT; antitumor compounds; DMSO.
# as §1, §2, §3, §4, §21
# 4. The culture plate was placed in an incubator. Digestion was carried out for about 8 min at 37° C.;
# as §22, with “5000” for “4000”, “70” for “69”
# as §23, §24, §25
# (§28) 9. 100 μL of DMSO was added into each well and vibrated to dissolve;
# as §27, §16, §17, §18, §19, §20
# NCI-H446 cells = assay: NCI-H446 cell growth inhibition test (MTT assay); type: cell-based, human; conditions: growth inhibition at 222 nM, 70 h
# Method: NCI-H446 Cell Growth Inhibition Test (MTT Assay)
# Cell strains: NCI-H446 (human small cell lung cancer cell strains); MTT; antitumor compounds; DMSO.
# as §1, §2, §3, §4, §21
# 4. The culture plate was placed in an incubator. Digestion was carried out for about 3 min at 37° C.;
# as §22, with “3” for “4.5”, “70” for “69”
# as §23, §24, §25, §28, §27, §16, §17, §18, §19, §20
# MDA-MB-453 cells = assay: MDA-MB-453 cell growth inhibition test (SRB assay); type: cell-based, human; conditions: growth inhibition at 2000 nM, 69.5 h
# Method: MDA-MB-453 Cell Growth Inhibition Test (SRB Assay)
# Cell strains: MDA-MB-453 (human breast cancer cell strains); SRB: 0.4% (w/v) working solution was formulated with 1% glacial acetic acid, reserved at 4° C.; antitumor compounds; DMSO.
# as §1
# Culture medium: 90% L15+10% FBS; pancreatin (0.25% (w/v) solution was formulated with PBS, 0.53 mM of EDTA was added in the formulation); PBS; 96-well culture plate.
# as §3, §4, §5, §6
# as §7, with “well.” for “well. The plate was further incubated for 73 h under 5% CO2 at 37° C.;”
# The plate was further incubated for 69.5 h under 5% CO2 at 37° C.;
# as §8, §9, §10, §11, §12, §13, §14, §15, §16, §17, §18, §19, §20
# A375 cells = assay: A375 cell growth inhibition test (MTT assay); type: cell-based, human; conditions: 72 h
# Method: A375 Cell Growth Inhibition Test (MTT Assay)
# as §1
# Culture medium: 90% DMEM+10% FBS (fetal calf serum); Pancreatin (0.25% (w/v) solution was formulated with PBS, 0.53 mM of EDTA was added in the formulation); PBS; 96-well culture plate.
# as §3, §4
# (§29) 3. PBS was sucked out. 1.5 mL of 0.25% pancreatin was added to the plate to infiltrate the cells for 1 min;
# (§30) 4. The culture plate was placed in an incubator. Digestion was carried out for about 5 min at 37° C.;
# as §22, with “3” for “4.5”, “3000” for “4000”, “72” for “69”
# as §23, §24, §25, §26, §27, §16, §17, §18, §19, §20
# A431 cells = assay: A431 cell growth inhibition test (MTT assay); type: cell-based, human; conditions: 72 h
# Method: A431 Cell Growth Inhibition Test (MTT Assay)
# as §1
# Culture medium: 45% DMEM+45% F12+10% FBS (fetal calf serum); Pancreatin (0.25% (w/v) solution was formulated with PBS, 0.53 mM of EDTA was added in the formulation); PBS; 96-well culture plate.
# as §3, §4, §29, §30
# as §22, with “3” for “4.5”, “mL)” for “ml)”, “2500” for “4000”, “72” for “69”
# as §23, §24, §25, §26, §27, §16, §17, §18, §19, §20
compound,measurement,setting,value
"CC(=O)O.COc1cccc2c1C(=O)c1c(O)c3c(c(O)c1C2=O)CC(O)(C(=O)COC(=O)CCC(=O)N1CCN(CCO)CC1)CC3O[C@H]1C[C@H](n2cccc2)[C@H](O)[C@H](C)O1 (stereo partly drawn) [Example 77, 10-((3′-(pyrrol-1-yl)-2′,3′,6′-trideoxy-alphal-l-lyxo-hexylpyranyl)oxy)-7,8,9,10-tetrahydro-6,8,11-trihydroxy-13-oxo-14-(4-((4-(2-hydroxy)ethyl)piperazin-1-yl)-4-oxo-butyrato)-1-methoxy-5,12-naphthalenedione acetate]",Inhibition Ratio (%),22Rv1 cells,57.9%
same,Inhibition Ratio (%),SK-OV-3 cells,60.4%
same,solubility of the compound in water,[1],more than 10.6 mg/ml
same,Inhibition Ratio (%),BxPc-3 cells,83.3%
same,Inhibition Ratio (%),NCI-H446 cells,59.1%
same,Inhibition Ratio (%),MDA-MB-453 cells,79.7%
COc1cccc2c1C(=O)c1c(O)c3c(c(O)c1C2=O)CC(O)(C(=O)COC(=O)CCCC(=O)NCCN1CCOCC1)CC3OC1CC(n2cccc2)C(O)C(C)O1 (centres unmarked) [Example 97],IC50,A375 cells,28 nM
same,IC50,A431 cells,45 nM
"CC(=O)O.COc1cccc2c1C(=O)c1c(O)c3c(c(O)c1C2=O)CC(O)(C(=O)COC(=O)CCC(=O)NCCCN1CCOCC1)CC3O[C@H]1C[C@H](n2cccc2)[C@H](O)[C@H](C)O1 (stereo partly drawn) [Example 78, 10-((3′-(pyrrol-1-yl)-2′,3′,6′-trideoxy-alphal-l-lyxo-hexylpyranyl)oxy)-7,8,9,10-tetrahydro-6,8,11-trihydroxy-13-oxo-14-(4-((3-(morpholin-1-yl)propyl)amino)-4-oxo-butyrato)-1-methoxy-5,12-naphthalenedione acetate]",solubility of the compound in water,[1],more than 22 mg/ml
CC(=O)O.COc1cccc2c1C(=O)c1c(O)c3c(c(O)c1C2=O)CC(O)(C(=O)COC(=O)CCC(=O)NCc1cccnc1)CC3O[C@H]1C[C@H](n2cccc2)[C@H](O)[C@H](C)O1 (some centres unmarked) [Example 83],solubility of the compound in water,[1],more than 1 mg/ml
"CC(=O)O.COc1cccc2c1C(=O)c1c(O)c3c(c(O)c1C2=O)CC(O)(C(=O)COC(=O)CCC(=O)NCCOCCN(C)C)CC3O[C@H]1C[C@H](n2cccc2)[C@H](O)[C@H](C)O1 (stereo partly drawn) [Example 76, 10-((3′-(pyrrol-1-yl)-2′,3′,6′-trideoxy-alphal-l-lyxo-hexylpyranyl)oxy)-7,8,9,10-tetrahydro-6,8,11-trihydroxy-13-oxo-14-(4-(2-(2-(dimethylamino)ethoxy)ethylamino)-4-oxo-butyrato)-1-methoxy-5,12-naphthalenedione acetate]",Inhibition Ratio (%),22Rv1 cells,49.2%
same,Inhibition Ratio (%),SK-OV-3 cells,46.4%
same,solubility of the compound in water,[1],more than 9 mg/ml
same,Inhibition Ratio (%),BxPc-3 cells,77.1%
same,Inhibition Ratio (%),NCI-H446 cells,46%
same,Inhibition Ratio (%),MDA-MB-453 cells,62.7%
CC(=O)O.COc1cccc2c1C(=O)c1c(O)c3c(c(O)c1C2=O)CC(O)(C(=O)COC(=O)CCC(=O)NN1CCN(C)CC1)CC3O[C@H]1C[C@H](n2cccc2)[C@H](O)[C@H](C)O1 (some centres unmarked) [Example 79],solubility of the compound in water,[1],more than 5 mg/ml
"COc1cccc2c1C(=O)c1c(O)c3c(c(O)c1C2=O)CC(O)(C(=O)COC(=O)CCC(=O)NCCN1CCOCC1)CC3O[C@H]1C[C@H](n2cccc2)[C@H](O)[C@H](C)O1 (stereo partly drawn) [Example 99, 10-((3′-(pyrrol-1-yl)-2′,3′,6′-trideoxy-alphal-l-lyxo-hexylpyranyl)oxy)-7,8,9,10-tetrahydro-6,8,11-trihydroxy-13-oxo-14-(4-((2-(morpholin-1-yl)ethyl)amino)-4-oxo-butyrato)-1-methoxy-5,12-naphthalenedione hydrochloride]",IC50,A375 cells; hydrochloride,35 nM
COc1cccc2c1C(=O)c1c(O)c3c(c(O)c1C2=O)CC(O)(C(=O)COC(=O)CCC(=O)NCCOCCN(C)C)CC3OC1CC(n2cccc2)C(O)C(C)O1 (centres unmarked) [Example 6],IC50,A375 cells,67 nM
CC(=O)O.COc1cccc2c1C(=O)c1c(O)c3c(c(O)c1C2=O)CC(O)(C(=O)COC(=O)CCC(=O)NCCc1ccccn1)CC3O[C@H]1C[C@H](n2cccc2)[C@H](O)[C@H](C)O1 (some centres unmarked) [Example 84],solubility of the compound in water,[1],more than 12 mg/ml
